Measurements as given in article PMC12744750 (Plant Communications, 2025).

How the values were obtained:
ETR1:HA = experiment: Co-IP competition: synthetic PLS vs PLS:GFP binding to ETR1:HA in N. benthamiana leaves; set-up: species or system Arabidopsis; conditions: 25 nM synthetic PLS(FL), 0.5 μM CuSO4, 50 μM MG-132, 30 min before tissue harvest
Excerpt: To investigate the interaction between the PLS peptide and the ethylene receptor ETR1, two DNA constructs were created by Gateway cloning. The […] PLS gene (without the stop codon) was inserted into the pEarlyGate103 (pEG103) destination vector, which contained the pro35S promoter and a C-terminal GFP tag, to produce a vector containing pro35S::PLS:GFP DNA. The ETR1 cDNA was inserted into the pEarlyGate301 (pEG301) vector to create a pro35S::ETR1:HA construct to express an ETR1 protein with a C-terminal HA tag. pro35S::GFP was used as a control. The primers used to clone ETR1 and PLS are found in supplemental Table 9.
Constructs were transiently expressed in N. benthamiana (tobacco) leaves as described previously ([Voinnet et al., 2003]). Experiments were replicated up to five times. Competent Agrobacterium tumefaciens GV3101 cells were transformed with the desired plasmid containing the gene of interest and injected with a syringe. The plants were approximately 7–10 weeks old; the chosen leaves were healthy and 3–6 cm in length, and 3 to 4 leaves were infiltrated with each construct. […]
SDS–PAGE was used to separate protein fragments. The complexed proteins from the pulldown assay were analyzed on 10%–12% acrylamide gels. […] The horseradish peroxidase conjugated to the secondary antibody was detected using X-ray film. […]

[1] = test system: Arabidopsis pls mutant seedlings (primary root length); experiment: Hydroponic peptide feeding: rescue of short primary root of pls mutant; type: in vivo, Arabidopsis thaliana
Experimental: (A) Amino acid sequence of the PLS peptide from Arabidopsis thaliana with the Camelina sativa PLS sequence and the synthetic truncations N1, N2, C1, and C2 indicated by horizontal lines. Two cysteine residues are highlighted in bold. (B) Effect of the synthetic Arabidopsis PLS full-length peptide, A. thaliana PLS(FL), and the Camelina PLS peptide (C. sativa PLS) on Arabidopsis primary root length. Wild-type (C24; blue bars) and pls mutant seedlings (orange bars) were grown hydroponically in the presence (100 nM) or absence of peptide for 10 days. ∗∗∗P < 0.05, t-test between C24 and pls. Error bars show ±1 standard error of the mean, n = 20. (C) Effect of synthetic full-length and truncated peptides on primary root length of wild-type (blue bars) and pls mutant (orange bars) Arabidopsis. Seedlings were grown hydroponically in the presence of 50 nM peptide for 10 days. C1, C-terminal 14 amino acids; C2, C-terminal 24 amino acids; N1, N-terminal 22 amino acids; N2, N-terminal 9 amino acids; full-length PLS, 36 amino acids. Error bars show ±1 standard error of the mean, n = 25. ∗∗∗P < 0.05, t-test between C24 and pls.
proPLS::PLS:GFP comprises a 1.5-kb PLS promoter sequence ([Casson et al., 2002]) fused to the PLS open reading frame in pMDC107 (obtained from Prof. P.J. Hussey, Durham University) as a C-terminal GFP translational fusion. The PLS ORF with its 1.5-kb promoter was amplified from the TOPO 2.1 vector, which contained the PLS gene sequence with promoter ([Casson et al., 2002]); the primers used for cloning are listed in supplemental Table 9. pls mutant plants were transformed using the method of [Clough and Bent (1998)]. proPLS::GFP plants were generated using the 1.5-kb PLS promoter ([Casson et al., 2002]) fused to GFP in a wild-type background. p35S::GFP seedlings were obtained from Dr. Piers Hemsley, Durham University. Seedlings of Arabidopsis thaliana ecotype C24 or Col-0, pls mutants, and transgenic PLS overexpressers, all from lab stocks, were grown on solid sterile half-strength (2.2 g/l) Murashige and Skoog medium (Sigma-Aldrich) containing 10 g/l sucrose (half-strength [½] MS10 medium) solidified with 2.5 g/l Phytagel (Sigma-Aldrich) in 90-mm Petri dishes (Sarstedt, Leicester, UK) at 21°C under a 16-h photoperiod as described previously ([Casson et al., 2002]; [Chilley et al., 2006]). N. benthamiana plants (lab stocks) were grown in a controlled environment (21°C, 16-h photoperiod) for transient expression studies in leaf tissue. For hydroponic feeding studies, Arabidopsis seedlings were cultured in liquid ½ MS10 medium (1 ml/well) in sterile 24-well plates (Sarstedt), essentially as described in [Matsuzaki et al. (2010]). For hormone and peptide assays, one seedling was grown in each well at 21°C under a 16-h photoperiod. For peptide feeding experiments, purified freeze-dried peptide was dissolved in DMSO to create a 500-μM stock solution. The peptide stock solution was added to liquid ½ MS10 medium containing 0.1% DMSO to obtain a final peptide concentration of 50 or 100 nM (or 10, 25, 50, and 100 nM for dose-dependent assays). For copper treatments, 1 mM CuSO4 solution was filter sterilized and added to autoclaved liquid ½ MS10 medium to obtain final CuSO4 concentrations of 0, 5, 10, 15, 20, 25, 30, 35, 40, 45, and 50 μM. Seedlings were scanned to create a digital image, and root lengths of the seedlings were measured using ImageJ. Statistical analysis was performed using Real Statistics Resource Pack software (release 3.8, www.real-statistics.com) in Excel (Microsoft) using data from at least 10 independently grown seedlings for root growth analysis; specific numbers are defined for each experiment.

PLS(FL): full-length 36-amino-acid PLS peptide from Arabidopsis (MKPRLCFNFRRRSISPCYISISYLLVAKLFKLFKIH)
reduction in PLS:GFP binding to ETR1:HA (ETR1:HA): ~80%
rescue of root growth of pls seedlings ([1]; 50 nM peptide, hydroponic, 10 days, n = 25 (Figure 2C)): rescued root growth
difference in rescue effects of PLS(FL) and PLS(N1), t-test P ([1]; 50 nM, n = 25): > 0.1
difference in rescue effects of PLS(FL) and PLS(N1) ([1]; 50 nM, n = 25, t-test): did not differ significantly
rescue of short primary root length of pls mutant ([1]; hydroponic, 10 days, 100 nM (Figure 2B) or 50 nM (Figure 2C)): able to rescue the short primary root length
